US20230022400A1, “IMMUNOMODULATORS” (Bristol-Myers Squibb Company, priority 2019, published 2023)
pIC50: −log10 of the molar value. Where a SMILES comes first, the peptide text is derived from it. Bridges are numbered along the chain shown (N, C = ends). [ ]: non-standard residue; d: D form. The star is where a group is joined. Trp(1-CH2CO2Me) = COC(=O)Cn1cc(C[C@H](N)C(=O)O)c2ccccc21; Trp(1-CH2COOH) = N[C@@H](Cc1cn(CC(=O)O)c2ccccc12)C(=O)O; X7 = Cc1ccc(-n2c3ccccc3c3c(*)nc(C)nc32)nc1; Hyp = O=C(O)[C@@H]1C[C@@H](O)CN1; X20 = Cc1ccc2[nH]c3c(*)ncnc3c2c1; X8 = Cn1cnc2c(Cl)nc3sc(*)nc3c21; X13 = Clc1ccc2oc3c(*)ncnc3c2c1; NMeNle = CCCC[C@H](NC)C(=O)O; X17 = Clc1cc2nc(*)sc2cc1Cl; NMeA = CN[C@@H](C)C(=O)O; X14 = Clc1cccc2sc(*)nc12; Dab = NCC[C@H](N)C(=O)O; X21 = Fc1ccc2nc(*)sc2c1; Dap = NC[C@H](N)C(=O)O; X9 = Fc1cccc2sc(*)nc12; X1 = c1ccc2sc(*)nc2c1

target: T1, PD-1/PD-L1 interaction (PD-1-Ig / PD-L1-His) (Homo sapiens, UniProt Q9NZQ7); test: PD-1/PD-L1 Homogenous Time-Resolved Fluorescence (HTRF) binding assay; settings: PD-L1-His 10 nM final, PD-1-Ig 20 nM final; inhibitors pre-incubated with PD-L1-His for 15 m
T1 construct: TVMV protease site (linker) (C); made in house; host or cells: HEK293T cells
From the text: The ability of the compounds of formula (I) to bind to PD-L1 was investigated using a PD-1/PD-L1 Homogenous Time-Resolved Fluorescence (HTRF) binding assay.
The interaction of PD-1 and PD-L1 can be assessed using soluble, purified preparations of the extracellular domains of the two proteins. The PD-1 and PD-L1 protein extracellular domains were expressed as fusion proteins with detection tags, for PD-1, the tag was the Fc portion of Immunoglobulin (PD-1-Ig) and for PD-L1 it was the 6 histidine motif (PD-L1-His). All binding studies were performed in an HTRF assay buffer consisting of dPBS supplemented with 0.1% […] bovine serum albumin and 0.05% (v/v) Tween-20. For the h/PD-L1-His binding assay, inhibitors were pre-incubated with PD-L1-His (10 nM final) for 15 m in 4 μl of assay buffer, followed by addition of PD-1-Ig (20 nM final) in 1 μl of assay buffer and further incubation for 15 m. HTRF detection was achieved using europium crypate-labeled anti-Ig (1 nM final) and allophycocyanin (APC) labeled anti-His (20 nM final). Antibodies were diluted in HTRF detection buffer and 5 μl was dispensed on top of the binding reaction. The reaction mixture was allowed to equilibrate for 30 minutes and the resulting signal (665 nm/620 nm ratio) was obtained using an EnVision fluorometer. Additional binding assays were established between the human proteins PD-1-Ig/PD-L2-His (20 & 5 nM, respectively) and CD80-His/PD-L1-Ig (100 & 10 nM, respectively).
Recombinant Proteins: Human PD-1 (25-167) with a C-terminal human Fc domain of immunoglobulin G (Ig) epitope tag [hPD-1 (25-167)-3S-IG] and human PD-L1 (18-239) with a C-terminal His epitope tag [hPD-L1(18-239)-TVMV-His] were expressed in HEK293T cells and purified sequentially by ProteinA affinity chromatography and size exclusion chromatography. Human PD-L2-His and CD80-His was obtained through commercial sources.
Table 1 lists the IC50 values for representative examples of this disclosure measured in the PD-1/PD-L1 Homogenous Time-Resolved Fluorescence (HTRF) binding assay.

T1 sequence (Q9NZQ7 18-239): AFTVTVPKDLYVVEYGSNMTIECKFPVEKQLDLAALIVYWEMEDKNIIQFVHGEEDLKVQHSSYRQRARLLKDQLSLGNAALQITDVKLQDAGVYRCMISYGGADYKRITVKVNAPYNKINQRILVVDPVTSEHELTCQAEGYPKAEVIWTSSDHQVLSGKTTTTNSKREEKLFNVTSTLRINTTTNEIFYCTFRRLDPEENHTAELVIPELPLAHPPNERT

Row | SMILES | pIC50
1 | CCCC[C@H]1C(=O)N(C)[C@@H](CCCC)C(=O)N[C@@H](CC(C)C)C(=O)N[C@H](C(=O)NCC(N)=O)CSCC(=O)N[C@@H](Cc2ccc(O)cc2)C(=O)N(C)[C@@H](C)C(=O)N[C@@H](CC(N)=O)C(=O)N2CCC[C@H]2C(=O)N[C@@H](CNc2nc3cc(Cl)c(Cl)cc3s2)C(=O)N[C@@H](CC(C)C)C(=O)N2C[C@H](O)C[C@H]2C(=O)N[C@@H](Cc2c[nH]c3ccccc23)C(=O)N[C@@H](CCNc2nc3cc(Cl)c(Cl)cc3s2)C(=O)N[C@@H](Cc2cn(CC(=O)O)c3ccccc23)C(=O)N1C [Compound 11005] ({CH2CO}-Y[NMeA]NP[Dap](X17)L[Hyp]W[Dab](X17)[Trp(1-CH2COOH)][NMeNle][NMeNle]LCG-NH2; thioether N-14) | 7.05
2 | CCCC[C@H]1C(=O)N(C)[C@@H](CCCC)C(=O)N[C@@H](CC(C)C)C(=O)N[C@H](C(=O)NCC(N)=O)CSCC(=O)N[C@@H](Cc2ccc(O)cc2)C(=O)N(C)[C@@H](C)C(=O)N[C@@H](CC(N)=O)C(=O)N2CCC[C@H]2C(=O)N[C@@H](CNc2nc3c(Cl)cccc3s2)C(=O)N[C@@H](CC(C)C)C(=O)N2C[C@H](O)C[C@H]2C(=O)N[C@@H](Cc2c[nH]c3ccccc23)C(=O)N[C@@H](CCNc2nc3c(Cl)cccc3s2)C(=O)N[C@@H](Cc2cn(CC(=O)O)c3ccccc23)C(=O)N1C [Compound 11006] ({CH2CO}-Y[NMeA]NP[Dap](X14)L[Hyp]W[Dab](X14)[Trp(1-CH2COOH)][NMeNle][NMeNle]LCG-NH2; thioether N-14) | 8.10
3 | CCCC[C@H]1C(=O)N(C)[C@@H](CCCC)C(=O)N[C@@H](CC(C)C)C(=O)N[C@H](C(=O)NCC(N)=O)CSCC(=O)N[C@@H](Cc2ccc(O)cc2)C(=O)N(C)[C@@H](C)C(=O)N[C@@H](CC(N)=O)C(=O)N2CCC[C@H]2C(=O)N[C@@H](CNc2nc3ccc(F)cc3s2)C(=O)N[C@@H](CC(C)C)C(=O)N2C[C@H](O)C[C@H]2C(=O)N[C@@H](Cc2c[nH]c3ccccc23)C(=O)N[C@@H](CCN)C(=O)N[C@@H](Cc2cn(CC(=O)O)c3ccccc23)C(=O)N1C [Compound 11010] ({CH2CO}-Y[NMeA]NP[Dap](X21)L[Hyp]W[Dab][Trp(1-CH2COOH)][NMeNle][NMeNle]LCG-NH2; thioether N-14) | 7.35
4 | CCCC[C@H]1C(=O)N(C)[C@@H](CCCC)C(=O)N[C@@H](CC(C)C)C(=O)N[C@H](C(=O)NCC(N)=O)CSCC(=O)N[C@@H](Cc2ccc(O)cc2)C(=O)N(C)[C@@H](C)C(=O)N[C@@H](CC(N)=O)C(=O)N2CCC[C@H]2C(=O)N[C@@H](CNc2nc3ccccc3s2)C(=O)N[C@@H](CC(C)C)C(=O)N2C[C@H](O)C[C@H]2C(=O)N[C@@H](Cc2c[nH]c3ccccc23)C(=O)N[C@@H](CCN)C(=O)N[C@@H](Cc2cn(CC(=O)O)c3ccccc23)C(=O)N1C [Compound 11012] ({CH2CO}-Y[NMeA]NP[Dap](X1)L[Hyp]W[Dab][Trp(1-CH2COOH)][NMeNle][NMeNle]LCG-NH2; thioether N-14) | 8.10
5 | CCCC[C@H]1C(=O)N(C)[C@@H](CCCC)C(=O)N[C@@H](CC(C)C)C(=O)N[C@H](C(=O)NCC(N)=O)CSCC(=O)N[C@@H](Cc2ccc(O)cc2)C(=O)N(C)[C@@H](C)C(=O)N[C@@H](CC(N)=O)C(=O)N2CCC[C@H]2C(=O)N[C@@H](CNc2nc3ccccc3s2)C(=O)N[C@@H](CC(C)C)C(=O)N2C[C@H](O)C[C@H]2C(=O)N[C@@H](Cc2c[nH]c3ccccc23)C(=O)N[C@@H](CCNc2nc3ccccc3s2)C(=O)N[C@@H](Cc2cn(CC(=O)OC)c3ccccc23)C(=O)N1C [Compound 12001] ({CH2CO}-Y[NMeA]NP[Dap](X1)L[Hyp]W[Dab](X1)[Trp(1-CH2CO2Me)][NMeNle][NMeNle]LCG-NH2; thioether N-14) | 6.86
6 | CCCC[C@H]1C(=O)N(C)[C@@H](CCCC)C(=O)N[C@@H](CC(C)C)C(=O)N[C@H](C(=O)NCC(N)=O)CSCC(=O)N[C@@H](Cc2ccc(O)cc2)C(=O)N(C)[C@@H](C)C(=O)N[C@@H](CC(N)=O)C(=O)N2CCC[C@H]2C(=O)N[C@@H](CNc2ncnc3c2[nH]c2ccc(C)cc23)C(=O)N[C@@H](CC(C)C)C(=O)N2C[C@H](O)C[C@H]2C(=O)N[C@@H](Cc2c[nH]c3ccccc23)C(=O)N[C@@H](CCN)C(=O)N[C@@H](Cc2cn(CC(=O)O)c3ccccc23)C(=O)N1C [Compound 21003] ({CH2CO}-Y[NMeA]NP[Dap](X20)L[Hyp]W[Dab][Trp(1-CH2COOH)][NMeNle][NMeNle]LCG-NH2; thioether N-14) | 7.89
7 | CCCC[C@H]1C(=O)N(C)[C@@H](CCCC)C(=O)N[C@@H](CC(C)C)C(=O)N[C@H](C(=O)NCC(N)=O)CSCC(=O)N[C@@H](Cc2ccc(O)cc2)C(=O)N(C)[C@@H](C)C(=O)N[C@@H](CC(N)=O)C(=O)N2CCC[C@H]2C(=O)N[C@@H](CNc2nc(C)nc3c2c2ccccc2n3-c2ccc(C)cn2)C(=O)N[C@@H](CC(C)C)C(=O)N2C[C@H](O)C[C@H]2C(=O)N[C@@H](Cc2c[nH]c3ccccc23)C(=O)N[C@@H](CCN)C(=O)N[C@@H](Cc2cn(CC(=O)O)c3ccccc23)C(=O)N1C [Compound 21005] ({CH2CO}-Y[NMeA]NP[Dap](X7)L[Hyp]W[Dab][Trp(1-CH2COOH)][NMeNle][NMeNle]LCG-NH2; thioether N-14) | 7.60
8 | CCCC[C@H]1C(=O)N(C)[C@@H](CCCC)C(=O)N[C@@H](CC(C)C)C(=O)N[C@H](C(=O)NCC(N)=O)CSCC(=O)N[C@@H](Cc2ccc(O)cc2)C(=O)N(C)[C@@H](C)C(=O)N[C@@H](CC(N)=O)C(=O)N2CCC[C@H]2C(=O)N[C@@H](CNc2ncnc3c2oc2ccc(Cl)cc23)C(=O)N[C@@H](CC(C)C)C(=O)N2C[C@H](O)C[C@H]2C(=O)N[C@@H](Cc2c[nH]c3ccccc23)C(=O)N[C@@H](CCNc2ncnc3c2oc2ccc(Cl)cc23)C(=O)N[C@@H](Cc2cn(CC(=O)O)c3ccccc23)C(=O)N1C [Compound 21006] ({CH2CO}-Y[NMeA]NP[Dap](X13)L[Hyp]W[Dab](X13)[Trp(1-CH2COOH)][NMeNle][NMeNle]LCG-NH2; thioether N-14) | 7.92

The next molecules have a higher pIC50 than those just listed; values first:

Row | pIC50 | SMILES
9 | 8.40 | CCCC[C@H]1C(=O)N(C)[C@@H](CCCC)C(=O)N[C@@H](CC(C)C)C(=O)N[C@H](C(=O)NCC(N)=O)CSCC(=O)N[C@@H](Cc2ccc(O)cc2)C(=O)N(C)[C@@H](C)C(=O)N[C@@H](CC(N)=O)C(=O)N2CCC[C@H]2C(=O)N[C@@H](CNc2nc3c(F)cccc3s2)C(=O)N[C@@H](CC(C)C)C(=O)N2C[C@H](O)C[C@H]2C(=O)N[C@@H](Cc2c[nH]c3ccccc23)C(=O)N[C@@H](CCNc2nc3c(F)cccc3s2)C(=O)N[C@@H](Cc2cn(CC(=O)O)c3ccccc23)C(=O)N1C [Compound 11007] ({CH2CO}-Y[NMeA]NP[Dap](X9)L[Hyp]W[Dab](X9)[Trp(1-CH2COOH)][NMeNle][NMeNle]LCG-NH2; thioether N-14)
10 | 8.28 | CCCC[C@H]1C(=O)N(C)[C@@H](CCCC)C(=O)N[C@@H](CC(C)C)C(=O)N[C@H](C(=O)NCC(N)=O)CSCC(=O)N[C@@H](Cc2ccc(O)cc2)C(=O)N(C)[C@@H](C)C(=O)N[C@@H](CC(N)=O)C(=O)N2CCC[C@H]2C(=O)N[C@@H](CNc2nc3c(F)cccc3s2)C(=O)N[C@@H](CC(C)C)C(=O)N2C[C@H](O)C[C@H]2C(=O)N[C@@H](Cc2c[nH]c3ccccc23)C(=O)N[C@@H](CCN)C(=O)N[C@@H](Cc2cn(CC(=O)O)c3ccccc23)C(=O)N1C [Compound 11008] ({CH2CO}-Y[NMeA]NP[Dap](X9)L[Hyp]W[Dab][Trp(1-CH2COOH)][NMeNle][NMeNle]LCG-NH2; thioether N-14)
11 | 8.62 | CCCC[C@H]1C(=O)N(C)[C@@H](CCCC)C(=O)N[C@@H](CC(C)C)C(=O)N[C@H](C(=O)NCC(N)=O)CSCC(=O)N[C@@H](Cc2ccc(O)cc2)C(=O)N(C)[C@@H](C)C(=O)N[C@@H](CC(N)=O)C(=O)N2CCC[C@H]2C(=O)N[C@@H](CNc2nc3c(nc(Cl)c4ncn(C)c43)s2)C(=O)N[C@@H](CC(C)C)C(=O)N2C[C@H](O)C[C@H]2C(=O)N[C@@H](Cc2c[nH]c3ccccc23)C(=O)N[C@@H](CCN)C(=O)N[C@@H](Cc2cn(CC(=O)O)c3ccccc23)C(=O)N1C [Compound 21001] ({CH2CO}-Y[NMeA]NP[Dap](X8)L[Hyp]W[Dab][Trp(1-CH2COOH)][NMeNle][NMeNle]LCG-NH2; thioether N-14)
12 | 8.24 | CCCC[C@H]1C(=O)N(C)[C@@H](CCCC)C(=O)N[C@@H](CC(C)C)C(=O)N[C@H](C(=O)NCC(N)=O)CSCC(=O)N[C@@H](Cc2ccc(O)cc2)C(=O)N(C)[C@@H](C)C(=O)N[C@@H](CC(N)=O)C(=O)N2CCC[C@H]2C(=O)N[C@@H](CNc2nc3c(nc(Cl)c4ncn(C)c43)s2)C(=O)N[C@@H](CC(C)C)C(=O)N2C[C@H](O)C[C@H]2C(=O)N[C@@H](Cc2c[nH]c3ccccc23)C(=O)N[C@@H](CCNc2nc3c(nc(Cl)c4ncn(C)c43)s2)C(=O)N[C@@H](Cc2cn(CC(=O)O)c3ccccc23)C(=O)N1C [Compound 21004] ({CH2CO}-Y[NMeA]NP[Dap](X8)L[Hyp]W[Dab](X8)[Trp(1-CH2COOH)][NMeNle][NMeNle]LCG-NH2; thioether N-14)
